US8691764B2, “Inhibitors of NF-κB activity” (The Research Foundation for the State University of New York, priority 2007, dated 2014)

How the values were obtained:
[1] = tested on: BxPC-3 human pancreatic cancer cells; assay: MTT cell growth assay, BxPC-3; type: cell-based; details: 24 hours
Procedure: The growth of the cells at 24 hours was determined using the MTT assay, which was carried out according to the manufacturer's protocol (Sigma). BxPC-3 cells were seeded in a 96-well plate and cultured in RPMI 1640 medium supplemented with 10% fetal bovine serum and 1% penicillin/streptomycin, as described above. […] MTT solution (M-0283) in an amount equal to 10% of the culture medium volume was then added to each well and the cells were incubated for 4 hours. The resulting MTT formazan crystals were dissolved by adding MTT Solvent (M-0408) directly to the culture in an amount equal to the original culture volume with gentle stirring and then quantitated by an ELISA Model 680 Microplate Reader (Biorad).

NF-κB = NF-κB activity ELISA, HT-29 cells; type: cell-based, human; details: 3 h
annexin 1 [2] = assay: Induction of annexin 1 in HT-29 cells, Western blot; type: cell-based, human
Procedure: (§1) The human pancreatic cancer cell line, BxPC-3, or the colon cancer cell line HT-29, both from ATCC (Manassas, Va.) were maintained and grown in RPMI 1640 or McCoy's 5A medium (Cellgro) supplemented with 10% fetal bovine serum (HyClone) and 1% penicillin/streptomycin (Cellgro) in a humidified incubator at 37° C. and 5% CO2.
For the study of induction of annexin 1 by anti-inflammatory agents, the cells were incubated with either NO-ASA or Dex for 3 h. The cell fractions were obtained as described by Andrews and Faller (N. C. Andrews and D. V. Faller, Nucleic Acids Res. 19:2499 (1991)) with modification. Briefly, the cells were pelleted after treatment and washed three times with PBS. The cell pellets were resuspended in ice cold buffer A (10 mM HEPES, pH 7.9, 10 mM KCl, 1.5 mM MgCI2, 0.5 mM DTT, 0.5 mM PMSF) with protease inhibitor cocktail (Sigma) and incubated on ice for 15 min with occasional mixing by gently tapping the tube. The cell lysates were centrifuged up to 5000 rpm for three times. The supernatants were collected as cytoplasmic extracts. Nuclear pellets were washed with buffer A and resuspended in buffer C (20 mM HEPES, pH 7.9, 450 mM NaCl, 1.5 mM MgCI2, 0.2 mM EDTA, 0.5 mM DTT, 0.5 mM PMSF, 25% Glycerol) with protease inhibitor cocktail (Sigma) and incubated on ice for 30 min with occasional mixing to extract nuclear proteins. […]

HT-29 cells = assay: Apoptosis, Cell Death Detection ELISA, HT-29 cells; type: cell-based, human
Procedure: Apoptosis was determined using the Cell Death Detection ELISA^PLUS assay kit according to the manufacturer's protocol (Roche, Indianapolis, Ind.). Briefly, the cells were treated with either NO-ASA or Dex for 3 h. Cells were harvested and washed three times with PBS. The cell pellet was resuspended with lysis buffer and incubated for 30 min at RT. Cell […] at 200×g for 10 min. The ELISA assay was performed using 20 μl cell lysate and 80 μl Immunoreagent (containing 72 μl Incubation Buffer, 4 μl Anti-histone-biotin Solution, and 4 μl Anti-DNA-POD Solution) per micro-plate well. The micro-plate was covered with an adhesive foil and incubated on a shaker under gentle shaking at 200 rpm for 2 h at RT. The solution in each well was removed thoroughly by tapping and the pellets were rinsed three times with 200 μl Incubation Buffer. […] The absorbance was measured at 405 nm using the SpectraMax micro-plate reader (Molecular Devices, Sunnyvale).
Briefly, annexin 1 cDNA clones (OreGen) or the PCMV6XL5 vector, as a negative control, were transiently transfected into BxPC-3 cells grown to 40-60% confluency using Lipofectamine according to the product protocol (Invitrogen). […] NF-κB activity was subsequently measured by the TransBinding NF-κB Assay Kit and ELISA as described in Example 2. […]

annexin 1 [3] = assay: Induction of annexin 1 in BxPC-3 cells, Western blot of nuclear and cytoplasmic extracts; type: cell-based, human
Procedure: as §1
The cell fractions were obtained as described by Andrews and Faller (N. C. Andrews and D. V. Faller, Nucleic Acids Res. 19:2499 (1991)) with modification. Briefly, the cells were pelleted after treatment and washed three times with PBS. The cell pellets were resuspended in ice cold buffer A (10 mM HEPES, pH 7.9, 10 mM KCl, 1.5 mM MgCI2, 0.5 mM DTT, 0.5 mM PMSF) with protease inhibitor cocktail (Sigma) and incubated on ice for 15 min with occasional mixing by gently tapping the tube. The cell lysates were centrifuged up to 5000 rpm for three times. The supernatants were collected as cytoplasmic extracts. Nuclear pellets were washed with buffer A and resuspended in buffer C (20 mM HEPES, pH 7.9, 450 mM NaCl, 1.5 mM MgCI2, 0.2 mM EDTA, 0.5 mM DTT, 0.5 mM PMSF, 25% Glycerol) with protease inhibitor cocktail (Sigma) and incubated on ice for 30 min with occasional mixing to extract nuclear proteins. Nuclear extracts were cleared by centrifugation (14,800 rpm for 10 min) and the supernatants were collected as nuclear extracts.
For Western blotting, the proteins from both cytoplasmic extracts and nuclear extracts were separated by SDS-polyacrylamide gel electrophoresis and transferred onto PVDF membranes (Millipore). The membranes were blocked in 5% nonfat dry milk-TBS-T (20 mM Tris-HCl, pH 7.5, 500 mM NaCl. 0.3% Tween 20) at room temperature (RT) for an hour and probed with anti-annexin 1, c-IAP-1, c-IAP-2, and TRAF-1 (Santa Cruz Biotechnology, Inc. CA), and anti-Bcl-2 antibodies (Cell Signaling Technology), in 5% nonfat dry milk-TBS-T at 4° C. overnight. The blots were washed three times with TBS-T for 5 min each wash and incubated with horseradish peroxidase-conjugated secondary antibody (Santa Cruz) in 5% nonfat dry milk-TBS-T at RT for an hour. After five washes with TBS-T, the blots were developed with the enhanced chemiluminescence system (ECL™ Western Blotting System, Amersham Biosciences) and exposed to x-ray film according to the manufacturer's instructions. Protein loading was normalized using anti-β-actin antibodies (Santa Cruz Biotechnology, Inc).

Substance: nitric oxide-donating aspirin [NO-ASA]
- growth of BxPC-3 cells [1]: inhibits the growth
- NF-κB activity (NF-κB): inhibited NF-κB activity in a concentration-dependent manner
- expression of annexin 1 (annexin 1 [2]): induced
- induced cell apoptosis after knock-down of annexin 1 by specific siRNA (HT-29 cells; HT-29 cells (FIG. 3D)): completely abrogated
- cell apoptosis (HT-29 cells; HT-29 cells, 3 h): induced
- time of maximal annexin 1 levels in the cytoplasm (annexin 1 [3]; cytoplasm): 3 h
- expression of annexin 1 (annexin 1 [3]; nuclear and cytoplasmic extracts): induced
- time of peak annexin 1 levels in the nucleus (annexin 1 [3]; nucleus): 3 h
